Measured values: publication PMC7948456, “Kinetics of cytochrome P450 3A4 inhibition by heterocyclic drugs defines a general sequential multistep binding process” (The Journal of Biological Chemistry, 2020)

Key:
P450 3A4 [1] = biological target: T1, P450 3A4 (Homo sapiens, UniProt P08684); assay: Inhibitor-binding kinetics (stopped-flow absorbance, SVD analysis); conditions: P450 3A4 2 μM
Excerpt: Equal volumes of buffered solutions of P450 3A4 and ligand were mixed, with a nominal dead time of 2 ms. Data were collected in the Show Pre-trigger Mode, with a short amount of data from the previous run (completed reaction) shown prior to mixing. […] From the accumulated spectra from each individual experiment (5–10 shots per concentration), generally the A420 data were subtracted from the A390 data points or A390 data were subtracted from the A425 data points, and the difference (ΔA390 − A420 or ΔA425 − A390 versus time) traces were averaged using the OLIS GlobalWorks software and fit to first-order fits (or used in SVD analysis; Figs. 9 and S7–S10).

P450 3A4 [2] = biological target: T1, P450 3A4; conditions: equimolar inhibitor (50 nM), 160 μM 7-OBz quinoline added, 23 °C
P450 3A4 [3] = biological target: T1, P450 3A4; conditions: inhibitor 0.02 μM
Description: Assays for the kinetics of inhibition were done using an OLIS RSM-1000 stopped-flow instrument (On-Line Instrument Systems) in the fluorescence mode (150 W xenon lamp), with the excitation monochromator set at 410 nm and using a >515 nm Oriel long-pass filter (Newport) with the sample photomultiplier tube. The slit widths were 6.32 mm, and the sample and reference voltages of the photomultiplier tubes were 700 and 350 V, respectively. Reactions were done at 23 °C for 180 s.
One syringe contained the P450 3A4 system (100 nM P450 3A4, 200 nM POR, and 100 nM cytochrome b5) along with the other components of a “5×” mixture (potassium Hepes (pH 7.4), reduced glutathione, sodium cholate, and phospholipid mixture) combined with the 5× buffer mixture (Hepes, MgCl2, and reduced glutathione) ([42]), plus NADPH and the inhibitor compound. Fluorescence data were collected for 3 min (at 23 °C) and moved to Excel, Prism, and KinTek Explorer programs for analysis.

P450 3A4 [4] = biological target: T1, P450 3A4; conditions: P450 enzyme system + NADPH, UPLC-MS
P450 3A4 [5] = biological target: T2, P450 3A4 (Homo sapiens, UniProt P08684, form not given); assay: in vitro; conditions: P450 3A4 reconstituted with cholate/phospholipid mixture, probe 7-OBz quinoline (7-benzoyl quinoline) O-debenzylation, 20 μM
T2 sequence (P08684 13-503): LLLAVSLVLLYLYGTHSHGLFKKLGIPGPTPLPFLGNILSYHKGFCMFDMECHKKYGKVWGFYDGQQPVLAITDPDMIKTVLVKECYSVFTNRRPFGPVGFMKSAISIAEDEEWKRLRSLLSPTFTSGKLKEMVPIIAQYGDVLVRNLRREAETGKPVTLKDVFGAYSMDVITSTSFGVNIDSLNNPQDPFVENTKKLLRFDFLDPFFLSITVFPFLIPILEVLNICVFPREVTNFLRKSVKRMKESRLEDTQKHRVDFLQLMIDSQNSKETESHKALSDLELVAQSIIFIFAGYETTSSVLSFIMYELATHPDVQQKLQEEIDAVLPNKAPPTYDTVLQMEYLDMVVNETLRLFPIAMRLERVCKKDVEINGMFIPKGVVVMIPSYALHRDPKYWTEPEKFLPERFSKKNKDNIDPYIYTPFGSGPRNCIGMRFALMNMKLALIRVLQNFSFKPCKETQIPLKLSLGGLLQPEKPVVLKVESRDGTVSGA
T2 sequence (P00388 2-678 partner): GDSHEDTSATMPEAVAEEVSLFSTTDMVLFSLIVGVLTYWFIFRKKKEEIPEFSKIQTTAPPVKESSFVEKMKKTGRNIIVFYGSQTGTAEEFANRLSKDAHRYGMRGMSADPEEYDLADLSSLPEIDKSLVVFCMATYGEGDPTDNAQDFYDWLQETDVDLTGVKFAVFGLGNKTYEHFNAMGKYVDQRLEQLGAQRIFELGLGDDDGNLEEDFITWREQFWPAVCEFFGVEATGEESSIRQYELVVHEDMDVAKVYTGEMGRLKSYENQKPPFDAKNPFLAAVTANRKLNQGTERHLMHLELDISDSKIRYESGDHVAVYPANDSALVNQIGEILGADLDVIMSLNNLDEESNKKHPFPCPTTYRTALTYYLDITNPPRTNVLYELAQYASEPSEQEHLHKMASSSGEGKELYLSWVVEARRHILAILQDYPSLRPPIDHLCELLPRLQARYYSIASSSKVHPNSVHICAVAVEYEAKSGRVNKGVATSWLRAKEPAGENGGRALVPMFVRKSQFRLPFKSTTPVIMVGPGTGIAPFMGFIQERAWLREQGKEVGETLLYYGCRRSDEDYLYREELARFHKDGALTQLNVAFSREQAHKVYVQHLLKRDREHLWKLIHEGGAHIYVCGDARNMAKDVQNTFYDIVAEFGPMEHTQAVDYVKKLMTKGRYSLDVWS
T2 sequence (P00167 2-134 partner): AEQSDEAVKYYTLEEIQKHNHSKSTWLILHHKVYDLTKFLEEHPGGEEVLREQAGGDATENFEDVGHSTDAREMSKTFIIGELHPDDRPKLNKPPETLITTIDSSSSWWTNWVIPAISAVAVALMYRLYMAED

P450 3A4 [6] = biological target: T2, P450 3A4; assay: in vitro; conditions: P450 3A4 reconstituted with cholate/phospholipid mixture, probe testosterone 6β-hydroxylation, 25 μM
[7] = inhibitor 15 μM, three-species 1→2→3 model

T1 sequence (P08684 13-503): as the sequence (P08684 13-503) above
T1 sequence (P00388 2-678 partner): as the sequence (P00388 2-678 partner) above
T1 sequence (P00167 2-134 partner): as the sequence (P00167 2-134 partner) above

Structure (SMILES) | Spectral binding (SVD) k1 (P450 3A4 [1]; [7]) | Spectral binding (SVD) k2 (P450 3A4 [1]; [7]) | kobs, initial rate of binding (ΔA390 − A425) (P450 3A4 [1]; ligand 4 μM final) | lag phase in recovery of catalytic activity (P450 3A4 [2]) | Onset of 7-OBz quinoline O-debenzylation inhibition, Rate (k1) (P450 3A4 [3]) | substrate for P450 3A4 (product formation) (P450 3A4 [4]) | IC50 at 8 min (P450 3A4 [5]) | IC50 at 15 min (P450 3A4 [6])
Clc1ccccc1C(c1ccccc1)(c1ccccc1)n1ccnc1 [Clotrimazole] | 0.092 ± 0.01 s | 0.016 ± 0.005 s⁻¹ | 235 s⁻¹ | ~45 s | 0.39 ± 0.03 s⁻¹ | is a substrate as well as an inhibitor of P450 3A4 | 0.11 µM | 0.11 µM
CCC(C)n1ncn(-c2ccc(N3CCN(c4ccc(OCC5COC(Cn6cncn6)(c6ccc(Cl)cc6Cl)O5)cc4)CC3)cc2)c1=O (stereo not shown) [Itraconazole] |  |  |  |  |  |  | 2.02 µM | 1.49 µM
